Measured values reported in patent US9416139B2, “Spiro ring compound as hepatitis C virus (HCV) inhibitor and uses thereof” (SUNSHINE LAKE PHARMA CO., LTD., priority 2012, dated 2016).
Where two headings read alike, the source gives them in different places.

Tests used:
[1] = tested on: HCV 1a replicon; test: HCV GT1a replicon assay in Huh-7 cells; assay type: cell-based, Hepatitis C virus; settings: Huh-7 cells transfected with HCV replicon, 72 hours incubation, read-out: EC50 against HCV 1a genotype
Experimental: (§1) HCV Replicon System was utilized as an evaluation model in the present disclosure for verifying the effects of the compounds disclosed herein on HCV. An HCV Replicon assay was first described in Science, 1999, 285 (5424), 110-3. […] To determine the potential anti-HCV effects of the test compounds, luciferase assay and antibiotic Neomycin resistance gene were tested according to the method described in Science. 1999 Jul. 2; 285 (5424), 110-3 and J. Virol. 2003 March; 77 (5), 3007-19.
(§2) In a word, the compounds disclosed herein were tested by using human hepatic carcinoma cell line which is transfected stably HCV GT1a, GT1b or GT2a replicon respectively, and resistant cells Y93H, L31F, P32L or I302V and wild-type cells HCV 1b. HCV Replicon System disclosed herein containing Neomycin resistance gene and Luciferase Reporter Gene, the level of HCV replication in host cells is characterized by the expression level of the NEO gene expression level or Luciferase Reporter Gene, and the effects of the compounds herein inhibit HCV replication can be evaluated. In this article, a real-time quantitative polymerase chain reaction (qPCR) method was used to detect NEO gene expression level, and chemiluminescence method was used to test Luciferase Reporter Gene expression level.
(§3) 1. Test Method for Measuring EC50 of the Compounds Base on Luciferase Assay.
(§4) The Huh-7 cells transfected with HCV replicons system were seeded into 96-well plates (8,000 cells in 125 μL/well) respectively; each test compound was diluted to desired concentration using 5-fold serial dilutions protocol, 10 doses in duplicate, and added to wells with POD™ 810 Plate Assembler. […] In this paper, experiments were repeated twice and set the holes without compounds as negative control.
(§5) 2. Test Method for Measuring EC50 of the Compounds by Detecting Antibiotic G418 Resistance Gene NEO Gene.
(§6) In this paper, experiments were repeated twice and set the holes without compounds as negative control.

[2] = tested on: HCV 1b replicon; test: HCV GT1b replicon assay in Huh-7 cells; assay type: cell-based, Hepatitis C virus; settings: Huh-7 cells transfected with HCV replicon, 72 hours incubation, read-out: EC50 against HCV 1b genotype
Experimental: as §1, §2, §3, §4, §5, §6

| Compound | EC50 ([1]; Hepatitis C virus) | EC50 ([2]; Hepatitis C virus) | EC50 [1] | EC50 [2] |
| --- | --- | --- | --- | --- |
| COC(=O)N[C@H](C(=O)N1CCC[C@H]1c1ncc(-c2ccc(-c3ccc(-c4ccc5nc([C@@H]6CCCN6C(=O)[C@@H](NC(=O)OC)C6CCCCC6)[nH]c(=O)c5c4)c4c3CC3(CCCC3)C4)cc2)[nH]1)C1CCCCC1 [Example 15] | 0.206 nM | 0.142 nM | – | – |
| COC(=O)N[C@H](C(=O)C1CCCC[C@H]1c1nc2ccc(-c3ccc(-c4ccc(-c5cnc(C6CCCCN6C(=O)[C@@H](NC(=O)OC)C(C)C)[nH]5)cc4)c4c3CC3(CCCC3)C4)cc2c(=O)[nH]1)C(C)C (stereo partly drawn) [Example 16] | 0.089 nM | 0.036 nM | – | – |
| COC(=O)N[C@H](C(=O)N1C[C@@H](C)C[C@H]1n1cnc(-c2ccc(-c3ccc(-c4ccc5nc([C@@H]6C[C@H](C)CN6C(=O)[C@@H](NC(=O)OC)C(C)C)[nH]c(=O)c5c4)c4c3CC3(CCCC3)C4)cc2)c1)C(C)C [Example 17] | – | – | 0.023 nM | 0.006 nM |
| COC(=O)N[C@H](C(=O)N1CC(C)(C)C[C@H]1c1ncc(-c2ccc(-c3ccc(-c4ccc5nc([C@@H]6CC(C)(C)CN6C(=O)[C@@H](NC(=O)OC)C(C)C)[nH]c(=O)c5c4)c4c3CC3(CCCC3)C4)cc2)[nH]1)C(C)C [Example 18] | 0.326 nM | 0.065 nM | – | – |
| CC(C)[C@H](NC(=O)Oc1ccccc1)C(=O)N1CC(C)(C)C[C@H]1c1ncc(-c2ccc(-c3ccc(-c4ccc5nc([C@@H]6CC(C)(C)CN6C(=O)[C@@H](NC(=O)Oc6ccccc6)C(C)C)[nH]c(=O)c5c4)c4c3CC3(CCCC3)C4)cc2)[nH]1 [Example 19] | 4.77 nM | 0.436 nM | – | – |
| COC(=O)N[C@H](C(=O)N1CCC[C@H]1C(=O)Nc1ccc(-c2ccc(-c3ccc4nc([C@@H]5CCCN5C(=O)[C@@H](NC(=O)OC)C(C)C)[nH]c(=O)c4c3)c3c2CC2(CCCC2)C3)cc1)C(C)C [Example 20] | 3.67 nM | 0.685 nM | – | – |
| COC(=O)N[C@H](C(=O)N1CC2(CC2)C[C@H]1c1ncc(-c2ccc(-c3ccc(-c4ccc5nc([C@@H]6CC7(CC7)CN6C(=O)[C@@H](NC(=O)OC)C(C)C)[nH]c(=O)c5c4)c4c3CC3(CCCC3)C4)cc2)[nH]1)C(C)C [Example 21] | 0.08 nM | 0.029 nM | – | – |
| COC(=O)N[C@H](C(=O)N1C2CC2C[C@H]1c1ncc(-c2ccc(-c3ccc(-c4ccc5nc([C@@H]6CC7CC7N6C(=O)[C@@H](NC(=O)OC)C(C)C)[nH]c(=O)c5c4)c4c3CC3(CCCC3)C4)cc2)[nH]1)C(C)C (stereo partly drawn) [Example 22] | 0.561 nM | 0.072 nM | – | – |
| COC(=O)N[C@H](C(=O)N1[C@@H]2CC[C@@H](C2)[C@H]1c1ncc(-c2ccc(-c3ccc(-c4ccc5nc([C@@H]6[C@H]7CC[C@H](C7)N6C(=O)[C@@H](NC(=O)OC)C(C)C)[nH]c(=O)c5c4)c4c3CC3(CCCC3)C4)cc2)[nH]1)C(C)C [Example 23] | 0.31 nM | 0.047 nM | – | – |
| COC(=O)N[C@H](C(=O)N1CC2(C[C@H]1c1ncc(-c3ccc(-c4ccc(-c5ccc6nc([C@@H]7CCCN7C(=O)[C@@H](NC(=O)OC)C(C)C)[nH]c(=O)c6c5)c5c4CC4(CCCC4)C5)cc3)[nH]1)OCCO2)C(C)C [Example 24] | 0.475 nM | 0.099 nM | – | – |
| COC(=O)N[C@H](C(=O)N1CCC[C@H]1c1ncc(-c2ccc(-c3ccc(-c4ccc5nc([C@@H]6CC7CC7N6C(=O)[C@@H](NC(=O)OC)C(C)C)[nH]c(=O)c5c4)c4c3CC3(CCCC3)C4)c3c2CCC3)[nH]1)C(C)C (stereo partly drawn) [Example 25] | 0.829 nM | 0.103 nM | – | – |
| COC(=O)N[C@H](C(=O)N1CCC[C@H]1c1ncc(-c2ccc(-c3ccc(-c4ccc5nc([C@@H]6CC7CC7N6C(=O)[C@@H](NC(=O)OC)C(C)C)[nH]c(=O)c5c4)c4c3CC3(CCCC3)C4)c3ccccc23)[nH]1)C(C)C (stereo partly drawn) [Example 26] | 0.727 nM | 0.216 nM | – | – |
| COC(=O)N[C@H](C(=O)N1CCC[C@H]1c1ncc(-c2ccc(-c3ccc(-c4ccc5nc([C@@H]6CC7CC7N6C(=O)[C@@H](NC(=O)OC)C(C)C)[nH]c(=O)c5c4)c4c3CC3(CCCC3)C4)c3cnoc23)[nH]1)C(C)C (stereo partly drawn) [Example 27] | 1.53 nM | 0.323 nM | – | – |
| COC(=O)N[C@H](C(=O)N1CCC[C@H]1c1ncc(-c2ccc(-c3sc(-c4ccc5nc([C@@H]6CCCN6C(=O)[C@@H](NC(=O)OC)C(C)C)[nH]c(=O)c5c4)c4c3CC3(CCCC3)C4)cc2)[nH]1)C(C)C [Example 28] | 1.1 nM | 0.763 nM | – | – |
| COC(=O)N[C@H](C(=O)N1CCC[C@H]1C1=Nc2cc(-c3cnc(-c4ccc(-c5cnc([C@@H]6CCCN6C(=O)[C@@H](NC(=O)OC)C(C)C)[nH]5)cc4)c4c3CC3(CCCC3)C4)ccc2S(=O)(=O)N1)C(C)C [Example 29] | 0.061 nM | 0.009 nM | – | – |
